Laboratory results taken from patent US3959300A, “Novel indolobenzazepine derivatives, useful as tranquilizers” (priority 1974, dated 1976).
Like-named read-outs stand apart in the source and are kept apart here.

Columns and labels:
Water solubility = type: physicochemical; settings: methanesulfonate salt
taming = assay: Rhesus Monkey Taming Effects; type: in vivo; settings: po; for minimal effective dose: Macaca mulatta, read-out: Taming (monkey) MED
Experimental: (§1) Results given in: mg/kg po/monkey
Rhesus Monkey Taming Effects: Compounds are administered orally to groups of six rhesus monkeys. The behavior of the animals is then evaluated by observational means. Taming effects are determined by the ability of the observer to approach and touch the monkey. Compounds with major tranquilizer activity in man can produce a state of passive tameness in the rhesus monkey wherein it can be touched without provoking any of the threatening or aggressive behavior seen in the normal animal. The MED is the minimal oral dose at which some taming effect can be observed.

[1] = test system: amphetamine hyperactivity; assay: Mouse Anti-Amphetamine Activity (A.A.); type: in vivo; settings: po, read-out: A.A. (mouse) ED50
Experimental: (§2) Results given in: mg/kg po/mouse
Mouse Anti-Amphetamine Activity: Groups of 5 mice are given d-amphetamine sulfate 5 mg/kg sc 1 hour after oral administration of graded doses of test compound. The mice are placed in photocell activity units immediately after amphetamine administration and locomotor activity is recorded for 60 minutes. The ED50 is calculated as the dose causing a 50% reduction in locomotor activity relative to the activity of the amphetamine-treated control mice. Amphetamine antagonism at non-toxic doses appears to correlate with major tranquilizer activity in man.

locomotor activity = assay: Mouse Screen (decrease in locomotor activity); type: in vivo; settings: Mus musculus, po, read-out: Screen (mouse) MED
Text: as §2
Mouse Screen: The minimal effective dose (MED) is the lowest oral dose producing an obvious decrease in locomotor activity, using observational techniques. Groups of 3 mice are given decreasing oral doses at 0.5 log intervals (300, 100, 30 . . . etc.) until no behavioral effects are evident. Decrease of locomotor activity is indicative of general central nervous system depressant activity.

[2] = test system: approach-avoidance ("conflict") situation; assay: Rat Conflict (Approach-Avoidance) Test; type: in vivo; settings: for minimal effective dose: read-out: Conflict (rat) MED
Experimental: Results given in: mg/kg po/rat
Rat Conflict (Approach-Avoidance) Test: Food deprived rats are trained to pass from one compartment to an adjacent one to obtain food. The training consists of three exposures to the test situation on day one of the experiment. The rats are given limited (1-2 hr) free access to food in their home cages on day one and are then food deprived for at least 18 hours. On day two of the experiment, the rats are given a control exposure to the test situation followed by a second exposure after 1/2 to 1 hour in which they are shocked after crossing and eating. Groups of 6-8 rats are then dosed orally with solvent or test compound and then reexposed to the test situation after 1 or 2 hours.
This effect is dose-related (and the MED is the minimum dose at which this effect is obtained); rats dosed with solvent only consistently show a high level of fear as evidenced by decreased mobility and absence of feeding when placed in the test situation after receiving a shock.

[3] = test system: Conditioned Avoidance Response; assay: Rat Conditioned Avoidance Response (C.A.R.); type: in vivo; settings: po, read-out: C.A.R. (rat) ED50
Experimental: (§3) Results given in: mg/kg po/mouse mg/kg po/rat
(§4) Mouse and Rat Conditioned Avoidance Response: Mice and rats are trained to jump out of a pit onto a ledge to avoid shock when presented with a light and sound conditioned stimulus. The animals are tested 1, 2, and 4 hours after administration of the test compound. Three to 4 dose levels and groups of 4-8 animals/dose are used. The ED50 is the dose producing a block of the C.A.R. in 50% of the animals. Blocking of the C.A.R. at non-toxic doses appears to correlate with major tranquilizer activity in man.

approach-behavior = assay: Rhesus Monkey Approach Effects; type: in vivo; settings: po; for minimal effective dose: Macaca mulatta, read-out: Approach (monkey) MED
Experimental: as §1
Rhesus Monkey Approach Effects: Compounds are administered orally to groups of six rhesus monkeys. The behavior of the animals is then evaluated by observational means. […] The MED is the oral dose at which the animals show signs of decreased fear.

[4] = test system: Conditioned Avoidance Response; assay: Dog Conditioned Avoidance Response (C.A.R.); type: in vivo; settings: po; for ED50: Canis lupus familiaris, read-out: C.A.R. (dog) ED50
Experimental: Results given in: mg/kg po/dog
Dog Conditioned Avoidance Response: Dogs are trained to raise a forelimb when presented with a conditioned stimulus (light) in order to avoid an electric shock. Blocks of 10 trials are given to groups of four dogs during a pretreatment period and at 1, 2, and 4 hours after oral administration of test compound. The ED50 values are calculated as the dose causing 50% of the animals to show five or more incorrect responses. Blocking of the C.A.R. at non-toxic doses appears to correlate with major tranquilizer activity in man.

[5] = test system: Conditioned Avoidance Response; assay: Mouse Conditioned Avoidance Response (C.A.R.); type: in vivo; settings: po, read-out: C.A.R. (mouse) ED50
Experimental: as §3, §4

## CS(=O)(=O)O.c1ccc2c(c1)CCc1cccc3c4c(n-2c13)CCN(CC1CC1)C4 [3-(cyclopropylmethyl)-1,2,3,4,8,9-hexahydropyrido[4',3':2,3]indolo[1,7-ab][1]benzazepine methanesulfonate]
Water solubility
  solubility: > 500 mg/mL

## c1ccc2c(c1)CCc1cccc3c4c(n-2c13)CCN(CC1CC1)C4 [No. 3, 3-(cyclopropylmethyl)-1,2,3,4,8,9-hexahydropyrido[4',3':2,3]indolo[1,7-ab][1]benzazepine]
taming; rhesus monkey
  minimal effective dose: 3 to 10 mg/kg
[1]; mouse, d-amphetamine sulfate 5 mg/kg sc 1 hour after compound, 60 minutes recording
  ED50: 6 mg/kg
Locomotor activity
  minimal effective dose: 30 to 100 mg/kg
[2]; po, rat, reexposed after 1 or 2 hours
  minimal effective dose: 10 to 20 mg/kg
[3]; rat, tested 1, 2, and 4 hours after administration
  ED50: 40 mg/kg
approach-behavior; rhesus monkey
  minimal effective dose: 1 to 3 mg/kg
[4]; dog, 1, 2, and 4 hours after administration
  ED50: > 20 mg/kg
[5]; mouse, tested 1, 2, and 4 hours after administration
  ED50: 20 mg/kg

## CN(C)CCCN1c2ccccc2Sc2ccc(Cl)cc21 [chlorpromazine, reference compound]
taming
  minimal effective dose: 10 to 30 mg/kg
[1]; Mus musculus, 1 h
  ED50: 5 mg/kg
Locomotor activity
  minimal effective dose: 3 to 10 mg/kg
[2]; po, rat
  Conflict (rat) MED, symbol: I
[3]; Rattus norvegicus, 4 h
  ED50: 10 mg/kg
approach-behavior; rhesus monkey
  Approach (monkey) MED, symbol: I
[4]; 4 h
  ED50: 6 mg/kg
[5]; Mus musculus, 4 h
  ED50: 5 mg/kg

## CN1C(=O)CN=C(c2ccccc2)c2cc(Cl)ccc21 [diazepam, reference compound]
taming; rhesus monkey
  Taming (monkey) MED, symbol: I
Locomotor activity
  minimal effective dose: 3 to 10 mg/kg
[2]; Rattus norvegicus, po
  minimal effective dose: 3 to 10 mg/kg
[2]; rats cross to obtain food despite earlier shock, dose-related
  decreased fear in the test animals, in words: apparent decreased fear in the test animals
approach-behavior
  minimal effective dose: 3 to 10 mg/kg
[4]; dog
  C.A.R. (dog) ED50, symbol: I
